Assay results as given in patent US20230365602A1, “COMPOUND FOR USE IN THE TREATMENT OF PROTOZOAL DISEASES AND PROCESS FOR PRODUCTION OF SAID COMPOUND” (QUADREL S.R.L., priority 2020, published 2023).
Like-named read-outs stand apart in the source and are kept apart here.

How the values were obtained:
[1] = tested on: Salmonella TA100 (base pair substitutions); assay: Ames mutagenicity testing, TA100; type: cell-based
Procedure: The test has been performed in duplicate as separate experiments (Table 9). Two different Salmonella strains were tested; TA98 (frameshift mutations) and TA100 (base pair substitutions, primarily at one of the GC pairs). Values above 15 represent genotoxicity.

[2] = Toxicity MTT assay in PMA-differentiated THP-1 cells; type: cell-based, human; settings: human, PMA-differentiated THP-1 cells (macrophages); for CC50: THP-1 macrophages, Table 1, read-out: Toxicity CC50 ± SD or NOAEL; for IC50: Table 4b, read-out: Cytotoxicity THP-1 (IC50)
Source text: (§1) The in vitro antiparasitic activity against L. infantum (MHOM/MA/67/ITMAP-263) and the toxicity against THP-1 macrophages is presented in Table 1.

[3] = tested on: PMA-differentiated THP-1 cells; assay: as above; type: cell-based, human; settings: for Toxicity MTT assay in PMA-differentiated THP-1 cells: Table 5
Source text: as §1

HDAC9 = HDAC9 (Homo sapiens, UniProt Q9UKV0); assay: HDAC9 activity inhibition; type: biochemical
Sequence of HDAC9 (Q9UKV0 whole entry, species assumed): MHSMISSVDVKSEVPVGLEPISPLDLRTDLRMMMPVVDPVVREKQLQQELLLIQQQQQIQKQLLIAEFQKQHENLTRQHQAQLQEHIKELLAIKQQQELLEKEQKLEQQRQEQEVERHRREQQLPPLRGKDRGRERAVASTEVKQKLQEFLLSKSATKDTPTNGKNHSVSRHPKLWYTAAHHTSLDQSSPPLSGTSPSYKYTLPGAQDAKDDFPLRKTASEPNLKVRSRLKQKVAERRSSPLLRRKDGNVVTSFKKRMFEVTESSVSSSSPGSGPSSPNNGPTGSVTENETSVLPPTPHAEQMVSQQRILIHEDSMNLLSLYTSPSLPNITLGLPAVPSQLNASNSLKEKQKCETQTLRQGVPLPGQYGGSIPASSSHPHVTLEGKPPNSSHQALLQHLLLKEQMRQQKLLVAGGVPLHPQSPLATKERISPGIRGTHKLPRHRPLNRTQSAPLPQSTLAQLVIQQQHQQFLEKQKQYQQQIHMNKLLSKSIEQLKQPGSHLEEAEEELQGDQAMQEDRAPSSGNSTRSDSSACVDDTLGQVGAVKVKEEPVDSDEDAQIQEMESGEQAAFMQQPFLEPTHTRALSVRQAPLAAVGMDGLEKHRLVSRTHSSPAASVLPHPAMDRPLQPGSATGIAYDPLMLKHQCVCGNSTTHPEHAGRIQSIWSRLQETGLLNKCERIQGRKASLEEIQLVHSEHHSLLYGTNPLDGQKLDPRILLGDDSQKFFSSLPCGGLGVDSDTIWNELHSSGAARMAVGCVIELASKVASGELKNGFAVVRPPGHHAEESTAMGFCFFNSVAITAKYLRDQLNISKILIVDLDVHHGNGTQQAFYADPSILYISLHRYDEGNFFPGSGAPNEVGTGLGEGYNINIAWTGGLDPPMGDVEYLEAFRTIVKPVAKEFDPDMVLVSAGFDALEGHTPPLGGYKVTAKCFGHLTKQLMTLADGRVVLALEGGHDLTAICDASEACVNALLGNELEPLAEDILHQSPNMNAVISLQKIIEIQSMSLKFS

CYP2C19 = CYP2C19 (Homo sapiens, UniProt P33261); assay: Early toxicity: CYP2C19 inhibition; type: in vitro ADME; settings: human, mean ± SD, Table 4a
Sequence of CYP2C19 (P33261 whole entry): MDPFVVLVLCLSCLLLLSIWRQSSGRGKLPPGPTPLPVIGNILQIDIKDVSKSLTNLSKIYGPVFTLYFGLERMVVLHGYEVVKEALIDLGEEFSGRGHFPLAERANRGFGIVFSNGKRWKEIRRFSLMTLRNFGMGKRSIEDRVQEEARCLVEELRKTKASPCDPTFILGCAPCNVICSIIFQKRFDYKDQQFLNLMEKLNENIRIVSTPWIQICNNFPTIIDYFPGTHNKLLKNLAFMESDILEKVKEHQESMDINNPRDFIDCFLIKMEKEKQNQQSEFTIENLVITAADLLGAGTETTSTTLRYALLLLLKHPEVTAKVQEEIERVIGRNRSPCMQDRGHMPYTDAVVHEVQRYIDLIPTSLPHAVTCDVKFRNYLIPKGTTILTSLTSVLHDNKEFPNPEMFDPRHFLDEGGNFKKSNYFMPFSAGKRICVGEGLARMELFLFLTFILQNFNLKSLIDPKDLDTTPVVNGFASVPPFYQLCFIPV

[4] = Gel formation in saline solutions of NaCl; type: physicochemical; settings: same conditions
Procedure: This effect is more pronounced at concentrations between 7 and 40 mg/mL at a temperature range between 20° C. and 40° C., preferably at ambient temperature. The homogeneity of the product facilitates homogeneity of dosing, i.e, variability among doses is lower, easy administration of the compound and higher patient acceptability.

HDAC6 = HDAC6 (Homo sapiens, UniProt Q9UBN7); assay: HDAC6 activity inhibition; type: biochemical
Sequence of HDAC6 (Q9UBN7 whole entry, species assumed): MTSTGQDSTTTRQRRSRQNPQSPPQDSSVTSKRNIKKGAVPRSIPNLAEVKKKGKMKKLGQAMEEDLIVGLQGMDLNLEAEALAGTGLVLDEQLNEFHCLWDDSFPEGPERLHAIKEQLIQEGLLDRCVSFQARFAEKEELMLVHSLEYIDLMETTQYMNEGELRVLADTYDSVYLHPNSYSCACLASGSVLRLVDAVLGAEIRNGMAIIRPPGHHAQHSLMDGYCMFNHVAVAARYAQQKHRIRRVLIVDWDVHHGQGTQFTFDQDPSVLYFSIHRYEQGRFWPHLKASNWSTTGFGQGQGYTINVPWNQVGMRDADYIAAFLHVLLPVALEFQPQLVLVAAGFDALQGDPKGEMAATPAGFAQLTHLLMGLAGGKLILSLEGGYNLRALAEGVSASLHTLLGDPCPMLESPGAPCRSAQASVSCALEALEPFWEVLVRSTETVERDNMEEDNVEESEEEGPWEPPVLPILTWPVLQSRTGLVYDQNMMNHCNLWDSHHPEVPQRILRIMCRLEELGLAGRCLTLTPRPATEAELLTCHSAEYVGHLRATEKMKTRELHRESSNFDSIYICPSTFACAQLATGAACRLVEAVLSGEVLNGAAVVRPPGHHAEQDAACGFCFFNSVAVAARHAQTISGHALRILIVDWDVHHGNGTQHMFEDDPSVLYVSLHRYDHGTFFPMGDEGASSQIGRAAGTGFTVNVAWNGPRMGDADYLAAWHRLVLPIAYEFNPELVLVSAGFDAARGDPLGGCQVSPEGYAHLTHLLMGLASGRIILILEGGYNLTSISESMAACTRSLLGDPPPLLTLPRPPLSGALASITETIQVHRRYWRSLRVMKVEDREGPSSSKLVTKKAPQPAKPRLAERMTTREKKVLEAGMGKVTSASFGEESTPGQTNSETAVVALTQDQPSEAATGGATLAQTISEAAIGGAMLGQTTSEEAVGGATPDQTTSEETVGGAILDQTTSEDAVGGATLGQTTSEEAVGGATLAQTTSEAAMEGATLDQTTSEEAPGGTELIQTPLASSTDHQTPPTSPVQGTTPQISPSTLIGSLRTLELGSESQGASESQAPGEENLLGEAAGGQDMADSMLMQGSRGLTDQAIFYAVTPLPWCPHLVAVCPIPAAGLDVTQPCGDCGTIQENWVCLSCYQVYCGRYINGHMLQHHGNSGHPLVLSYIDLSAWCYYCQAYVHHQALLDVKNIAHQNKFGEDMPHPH

CYP1A2 = molecular target: T1, CYP1A2 (Homo sapiens, UniProt P05177); assay: Early toxicity: CYP1A2 inhibition; type: in vitro ADME; settings: human, mean ± SD, Table 4a
T1 sequence (P05177 1-516): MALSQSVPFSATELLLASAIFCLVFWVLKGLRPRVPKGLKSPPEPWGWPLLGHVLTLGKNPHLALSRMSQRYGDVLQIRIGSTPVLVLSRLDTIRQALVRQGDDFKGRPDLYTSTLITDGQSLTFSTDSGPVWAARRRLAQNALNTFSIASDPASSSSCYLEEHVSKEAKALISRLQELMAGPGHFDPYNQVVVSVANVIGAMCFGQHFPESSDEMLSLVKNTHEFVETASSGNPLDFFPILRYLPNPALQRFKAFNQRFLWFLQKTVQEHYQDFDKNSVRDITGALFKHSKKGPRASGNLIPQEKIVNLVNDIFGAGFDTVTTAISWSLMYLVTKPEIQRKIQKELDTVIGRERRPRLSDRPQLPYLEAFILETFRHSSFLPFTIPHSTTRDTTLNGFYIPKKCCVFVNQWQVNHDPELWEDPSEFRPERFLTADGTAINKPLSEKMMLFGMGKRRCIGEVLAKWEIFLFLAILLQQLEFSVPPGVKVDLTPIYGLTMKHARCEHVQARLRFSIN

HDAC4 = HDAC4 (Homo sapiens, UniProt P56524); assay: HDAC4 activity inhibition; type: biochemical
Sequence of HDAC4 (P56524 whole entry, species assumed): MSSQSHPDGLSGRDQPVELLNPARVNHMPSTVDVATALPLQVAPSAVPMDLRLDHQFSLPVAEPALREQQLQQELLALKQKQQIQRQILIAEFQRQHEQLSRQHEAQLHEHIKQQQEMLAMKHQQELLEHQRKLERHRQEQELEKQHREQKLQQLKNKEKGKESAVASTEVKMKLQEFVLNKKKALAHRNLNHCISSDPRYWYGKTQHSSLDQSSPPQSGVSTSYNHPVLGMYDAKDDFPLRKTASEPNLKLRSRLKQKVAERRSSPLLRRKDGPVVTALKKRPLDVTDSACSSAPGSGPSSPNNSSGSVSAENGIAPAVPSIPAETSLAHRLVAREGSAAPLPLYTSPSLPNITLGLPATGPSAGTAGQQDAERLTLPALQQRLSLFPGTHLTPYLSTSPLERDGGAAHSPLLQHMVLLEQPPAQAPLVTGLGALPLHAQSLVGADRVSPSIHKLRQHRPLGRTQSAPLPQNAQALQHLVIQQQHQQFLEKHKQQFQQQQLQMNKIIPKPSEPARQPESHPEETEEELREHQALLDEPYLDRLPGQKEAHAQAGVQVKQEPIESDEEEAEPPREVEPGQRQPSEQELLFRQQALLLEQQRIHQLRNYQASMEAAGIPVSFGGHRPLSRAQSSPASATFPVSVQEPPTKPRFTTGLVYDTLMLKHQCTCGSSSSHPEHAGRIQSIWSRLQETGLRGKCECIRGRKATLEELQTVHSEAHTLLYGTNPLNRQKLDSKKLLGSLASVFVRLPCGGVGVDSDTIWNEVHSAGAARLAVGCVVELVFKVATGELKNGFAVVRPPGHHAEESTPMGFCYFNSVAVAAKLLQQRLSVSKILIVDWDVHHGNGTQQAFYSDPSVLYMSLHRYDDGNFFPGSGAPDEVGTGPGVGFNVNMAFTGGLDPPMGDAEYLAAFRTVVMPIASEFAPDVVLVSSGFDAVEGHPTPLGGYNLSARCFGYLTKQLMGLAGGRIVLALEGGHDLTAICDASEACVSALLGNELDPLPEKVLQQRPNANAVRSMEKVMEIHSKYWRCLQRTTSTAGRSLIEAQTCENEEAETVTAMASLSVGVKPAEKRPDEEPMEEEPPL

[5] = Human microsomal stability; type: in vitro ADME
Procedure: Furthermore, compound 19 is stable in human hepatic microsomes (samples were taken at 0, 5, 15, 30, 45 minutes) (Table 8), while the human plasma stability is 99.7% (samples were taken at 0, 15, 30, 45, 60, 120 minutes).

T. b. brucei GVR35 = assay: Stage II HAT mice model, live imaging; type: in vivo
[6] = tested on: L. donovani 1SR intracellular amastigotes; assay: Anti-leishmanial activity, L. donovani intracellular amastigotes; type: cell-based; settings: Leishmania donovani; read-out: L. donovani 1SR intracellular amastigotes IC50 ± SEM
Source text: The in vitro antiparasitic activity of compound 5-cyclopentadecylpentyl (2-(trimethylammonio)ethyl) phosphate (19) against L. infantum (2 species), L. amazonensis, L. donovani and L. major is presented in Table 3, as well as the toxicity against the human monocytic cell Line THP1 and PMA-differentiated THP-1 cells.

[7] = tested on: T. b. brucei L427 WT Blood-Stream Form; assay: Anti-parasitic activity against T. b. brucei blood-stream form (resazurin 72 h assay); type: cell-based; settings: for IC50: 72 h, read-out: Dose Response Curves IC50 ± SD (μM)
CYP2C9 = CYP2C9 (Homo sapiens, UniProt P11712); assay: Early toxicity: CYP2C9 inhibition; type: in vitro ADME
Sequence of CYP2C9 (P11712 whole entry): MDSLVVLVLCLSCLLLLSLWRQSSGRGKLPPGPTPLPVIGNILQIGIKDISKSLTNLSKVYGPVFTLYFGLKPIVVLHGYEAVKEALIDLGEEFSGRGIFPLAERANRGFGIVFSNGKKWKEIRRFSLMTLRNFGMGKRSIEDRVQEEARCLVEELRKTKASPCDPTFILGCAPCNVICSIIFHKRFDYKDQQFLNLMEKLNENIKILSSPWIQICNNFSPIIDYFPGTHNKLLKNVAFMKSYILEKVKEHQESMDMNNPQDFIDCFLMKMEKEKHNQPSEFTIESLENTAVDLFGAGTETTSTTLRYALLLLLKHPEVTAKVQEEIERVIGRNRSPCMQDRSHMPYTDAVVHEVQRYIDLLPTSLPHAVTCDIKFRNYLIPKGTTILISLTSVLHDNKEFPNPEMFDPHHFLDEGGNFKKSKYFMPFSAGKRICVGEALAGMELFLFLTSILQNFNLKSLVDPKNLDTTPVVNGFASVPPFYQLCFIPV

CYP2D6 = CYP2D6 (Homo sapiens, UniProt P10635); assay: Early toxicity: CYP2D6 inhibition; type: in vitro ADME; settings: human, mean ± SD, Table 4a
Sequence of CYP2D6 (P10635 whole entry): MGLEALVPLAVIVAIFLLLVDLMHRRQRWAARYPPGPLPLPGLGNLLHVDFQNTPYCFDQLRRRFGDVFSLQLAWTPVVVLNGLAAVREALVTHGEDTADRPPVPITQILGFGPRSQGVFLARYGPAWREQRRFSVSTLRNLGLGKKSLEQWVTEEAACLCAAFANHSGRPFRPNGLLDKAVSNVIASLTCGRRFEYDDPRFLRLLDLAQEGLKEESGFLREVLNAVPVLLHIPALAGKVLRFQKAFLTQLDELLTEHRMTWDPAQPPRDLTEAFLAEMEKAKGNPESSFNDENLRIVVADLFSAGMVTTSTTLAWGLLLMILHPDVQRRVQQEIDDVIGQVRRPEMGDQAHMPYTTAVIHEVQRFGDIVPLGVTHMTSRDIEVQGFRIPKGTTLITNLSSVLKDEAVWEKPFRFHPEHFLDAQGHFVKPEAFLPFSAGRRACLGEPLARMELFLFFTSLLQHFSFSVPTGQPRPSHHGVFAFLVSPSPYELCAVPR

Leishmania infantum = assay: Efficacy in mice infected with Leishmania infantum, 10-day treatment; type: in vivo, BALB/c mice; settings: 10 consecutive days; for parasite burden in the spleen: 20 mg/kg and 10 mg/kg
Procedure: (A) Experimental approach; (B) and (C) are graphic presentations of parasite burden in the spleen and the liver, respectively, evaluated by limiting dilution assay.
The treatments were reduced to 10 consecutive days at doses of 2.5, 5, 10 or 20 mg/Kg/day (FIG. 3).

W1-38 = assay: Early toxicity: W1-38 cell growth; type: cell-based; settings: for Avg % Cell growth W1-38: Table 5
[8] = tested on: L. infantum (MHOM/MA/67/ITMAP-263) intracellular amastigotes; assay: Anti-parasitic activity against L. infantum intracellular amastigotes (infection with axenic amastigotes luciferase positive); type: cell-based
[9] = in humans; cited from earlier work
hERG channel = hERG channel (Homo sapiens, UniProt Q12809); assay: in vitro

SMILES: C[N+](C)(C)CCOP(=O)([O-])OCCCCCC1CCCCCCCCCCCCCC1 [Compound 19, 5-cyclopentadecylpentyl (2-(trimethylammonio)ethyl) phosphate]
- Ames mutagenicity TA100 (values above 15 represent genotoxicity) ([1]; 3.125 μM): 7.5 ± 0.71
- Ames mutagenicity TA100 (values above 15 represent genotoxicity) ([1]; 6.25 μM): 9.0 ± 0
- Ames mutagenicity TA100 (values above 15 represent genotoxicity) ([1]; 12.5 μM): 14.0 ± 1.41
- Ames mutagenicity TA100 (values above 15 represent genotoxicity) ([1]; 25 μM): 7.0 ± 2.83
- Ames mutagenicity TA100 (values above 15 represent genotoxicity) ([1]; 50 μM): 10.0 ± 0
- Ames mutagenicity TA100 (values above 15 represent genotoxicity) ([1]; 100 μM): 8.5 ± 4.95
- mutagenicity, TA100 ([1]; up to 100 μM): does not exhibit mutagenicity
- CC50 [2]: > 100 µM
- IC50 [2]: > 100 µM
- CC50 ([3]; MTT assay in PMA-differentiated THP-1 cells, Table 3, read-out: Toxicity CC50 ± SD): > 100 µM
- CC50 ([3]; Table 2, read-out: Toxicity CC50 ± SD or NOAEL): > 100 µM
- Toxicity MTT assay in PMA-differentiated THP-1 cells [3]: >100 µM
- inhibition of the activity of HDAC9 (HDAC9; 100 μM): does not inhibit
- inhibition at 10 µM (CYP2C19): -18.2 ± 7.01%
- gel formation [4]: homogeneous gel product
- inhibition of the activity of HDAC6 (HDAC6; 100 μM): does not inhibit
- inhibition at 10 µM (CYP1A2): -32.1 ± 9.3%
- inhibition of the activity of HDAC4 (HDAC4; 100 μM): does not inhibit
- Degradation non NADPH dependent (%) ([5]; human microsomes): 0%
- Human microsomal Metabolic stability (%) ([5]; samples at 0, 5, 15, 30, 45 minutes): 100%
- average reduction of signal (average radiance) in the brain region (T. b. brucei GVR35; 50 mg/kg daily for 13 days, compared to beginning of treatment (day 21)): 99.96%
- reduction of infection (T. b. brucei GVR35; 50 mg/kg/day PO, 13 days): > 99%
- signal in the region of the brain lost (T. b. brucei GVR35; after 4 treatments (day 25), 50 mg/kg daily): 99.95%
- overall and brain infection (T. b. brucei GVR35; compound 19 50 mg/kg/day PO): able to significantly reduce the overall infection and also in the brain
- IC50 [6]: 24 ± 3.8 µM
- activity against T. b. brucei blood-stream form ([7]; Table 2): unexpectedly high activity in the low micromolar range
- IC50 ([7]; Trypanosoma brucei): 4.47 ± 0.2 µM
- inhibition at 10 µM ([7]; Trypanosoma brucei, read-out: Single Dose Assay 10 μM Mean Inhibitory Activity (%) ± SD): 99 ± 1%
- Selectivity Index CC50/IC50 or NOAEL/IC50 ([7]; toxicity / T. b. brucei IC50, Table 2): >22
- inhibition at 10 µM (CYP2C9; human, mean ± SD, Table 4a): -17.5 ± 2.31%
- inhibition at 10 µM (CYP2D6): -50.7 ± 3.45%
- reduction of parasite burden, spleen (Leishmania infantum; 2.5 mg/kg): 91±6%
- reduction of parasite burden, spleen (Leishmania infantum; 5 mg/kg): 99±1%
- parasite burden in the spleen (Leishmania infantum): able to maintain parasite burden below the detection limit
- parasite load in the liver (Leishmania infantum; all treatments (20, 10, 5, 2.5 mg/kg)): maintained the parasite load under the detection limit
- % cell growth W1-38 (W1-38; 10 μM): 95.66 ± 19.68%
- Avg % Cell growth W1-38 (W1-38; 10 μM): 95.66 ± 19.68 (10 μM) %
- inhibition at 10 µM ([8]; Leishmania infantum, 10 μM, Table 1, read-out: Single Dose Assay 10 μM Mean Inhibitory Activity (%) ± SD): 78 ± 2%
- IC50 ([8]; Leishmania infantum, Table 1, read-out: Dose Response Curves IC50 ± SD): 1.4 ± 0.1 µM
- IC50 ([8]; Leishmania infantum, Table 3, read-out: L. infantum intracellular amastigotes (MHOM/MA/67/ITMAP-263) IC50 ± SEM): 1.4 ± 0.1 µM
- Selectivity Index CC50/IC50 or NOAEL/IC50 ([8]; PMA-differentiated THP-1 CC50 / IC50 L. infantum MHOM/MA/67/ITMAP-263, Table 3): >71
- Selectivity Index CC50/IC50 or NOAEL/IC50 ([8]; THP-1 toxicity / L. infantum IC50, Table 1): >71

SMILES: CCCCCCCCCCCCCCCCOP(=O)([O-])OCC[N+](C)(C)C [Miltefosine, hexadecylphosphocholine, reference compound]
- half-life [9]: 100 to 200 h
- CC50 [2]: 15.9 ± 1.2 µM
- IC50 [2]: 15.9 ± 1.2 µM
- Toxicity MTT assay in PMA-differentiated THP-1 cells [3]: 15.9 ± 1.2 µM
- inhibition of the activity of HDAC9 (HDAC9; 10 μM): did not inhibit
- inhibition at 10 µM (CYP2C19): 7.92 ± 15.5%
- gel formation [4]: not observed
- inhibition of the activity of HDAC6 (HDAC6; 10 μM): did not inhibit
- inhibition at 10 µM (CYP1A2): -20.6 ± 11.8%
- inhibition of the activity of HDAC4 (HDAC4; 10 μM): did not inhibit
- infection outcome (words) (T. b. brucei GVR35; miltefosine treated animals, sacrificed after 7 treatments): no reduction in infection
- weight loss associated to the treatment (T. b. brucei GVR35; miltefosine treated infected animals): constant weight loss
- inhibition at 10 µM (hERG channel): -16.9 ± 7.34%
- IC50 [6]: 12.7 ± 3.3 µM
- IC50 ([7]; Trypanosoma brucei): 33.9 ± 0.5 µM
- Avg % inhibition CYP2C9 (CYP2C9; 10 μM, Table 5): −0.80 ± 38.33 (10 μM) %
- % inhibition CYP2C9 (CYP2C9; 10 μM, mean ± SD, Table 4a): −0.8 ± 38.32%
- inhibition at 10 µM (CYP2D6): 30.8 ± 16.7%
- reduction of parasite burden, spleen (Leishmania infantum; 2.5 mg/kg): 64±33%
- reduction of parasite burden, spleen (Leishmania infantum; 5 mg/kg): 70±36%
- parasite burden in the spleen (Leishmania infantum): not able to maintain parasite burden under the detection limit
- average reduction of parasite load, spleen (Leishmania infantum; 20 and 10 mg/kg): > 99%
- reduction of average parasite burden, liver (Leishmania infantum; all tested concentrations): more than 98%
- Avg % Cell growth W1-38 (W1-38; 10 μM): 113.50 ± 26.66 (10 μM) %
- % cell growth W1-38 (W1-38; at 1 μM): 113.5 ± 26.66%
- IC50 ([8]; Leishmania infantum, read-out: Dose Response Curves IC50 ± SD (μM)): 2.51 ± 1.73 µM
- IC50 ([8]; Leishmania infantum, read-out: L. infantum intracellular amastigotes (MHOM/MA/67/ITMAP-263) IC50 ± SEM (μM)): 3.2 ± 1.4 µM
